Source: article PMC8157322, “Gd(III)–Pt(IV) theranostic contrast agents for tandem MR imaging and chemotherapy” (Chemical Science, 2020)

Key:
[1] = tested on: HeLa cells; test: MR imaging of cell pellets at 7 T; type: cell-based; conditions: 6 h incubation, cisplatin 15 μM, 1 100 μM, GP1 60 μM, GP2 250 μM
[2] = T1/T2 relaxivity measurements in PBS; type: physicochemical; conditions: 37 °C
Description: The T1 relaxivity (r1) and T2 relaxivity (r2) of 1, GP1, and GP2 were measured at both low (1.41 T) and high (7 T) magnetic field strength in phosphate-buffered saline (PBS) to quantify how well they behave as MR contrast agents. […] The relaxivity values for 1 are well within the range of what is expected for a small molecule Gd(III) complex.[34] […] At 7 T, there was little change in r1 for both agents, while both r2 values increased, as expected. […]
(§1) solution. These capillaries were imaged using a Bruker PharmaScan 7 T MR imaging spectrometer (Bruker BioSpin, Billerica, MA, USA). T1 relaxation times were measured using a rapid-acquisition rapid-echo (RARE-VTR) T1-map pulse sequence with static TE (10 ms) and […]
parameters were as follows: field of view (FOV) = 25 x 25 mm2, matrix size (MTX) = 256 x 256, number of axial slices = 5, slice thickness (SI) = 1.0 mm, and averages (NEX) = 4. T1 analysis was carried out using the image sequence analysis tool in Paravision 5.0 pl2 software (Bruker, Billerica, MA, USA) with monoexponential curve-fitting of image intensities of selected regions of interest (ROIs) for each axial slice. […]
Fig. S2 Graph of r1 of (A) GP1 measured at 1.41 T (B) GP1 measured at 7 T (C) GP2 measured at 1.41 T
(D) GP2 measured at 7 T (E) 1 measured at 1.41 T (F) 1 measured at 7 T. All measurements were taken in PBS at 37 °C (G) 1 measured at 1.41 T with 5 mM GSH (H) GP1 measured at 1.41 T with 5 mM GSH and (I) GP2 measured at 1.41 T with 5 mM GSH.
Table S1. r1 of GP1, GP2, and 1 in PBS with 5 mM glutathione at 37 °C
GP1 (5 mM GSH) GP2 (5 mM GSH) 1 (5 mM GSH)

[3] = Aqueous solubility (qualitative); type: physicochemical; conditions: aqueous solutions / solvents
[4] = Reduction by 5 mM GSH / 5 mM ascorbate at 37 °C (HPLC-MS); type: physicochemical
Description: Under reducing conditions both agents rapidly converted to a monomeric Gd(III) complex and a Pt(II) drug. Each agent was incubated with 5 mM GSH and 5 mM ascorbate at 37 °C to mimic intracellular conditions. […] This is not surprising, as ascorbate is a weaker reducing agent. […]
as §1
Stability of GP1 and GP2 in various aqueous media. […] An aliquot of each was dissolved in H2O and analyzed by HPLC-MS using an Atlantis C18 column (4.6 × 250 mm, 5 μm) and the following method: MeCN held at 0% for 3 min followed by a 15 min ramp to 100% MeCN (GP1 retention time: 10.9 min, GP2 retention time: 11.6 min). Aliquots of both were additionally dissolved in PBS, MEM, RPMI-1640, pH 5 H2O, PBS with 10 units/mL porcine liver esterase, 5 mM glutathione, and 5 mM sodium ascorbate, incubated in a shaker at 37 °C, and were analyzed by HPLC-MS at different time points using the same method. At each time point, the area of the peak of GP1 or GP2 was determined by integration and compared to the area of the peaks in H2O. […]

[5] = tested on: porcine liver esterase (PLE); test: Stability in porcine liver esterase in PBS (HPLC-MS); type: in vitro ADME; conditions: PBS with 10 units/mL porcine liver esterase, 37 °C
Description: To ensure both agents remain stable in aqueous media under various conditions, they were dissolved in PBS, two types of cell culture media (MEM and RPMI-1640), pH 5 H2O, and porcine live esterase (PLE) in PBS and monitored over time by HPLC-MS. […]
Stability of GP1 and GP2 in various aqueous media. Aliquots of GP1 and GP2 were prepared from a stock with known mass checked by ICP-MS. An aliquot of each was dissolved in H2O and analyzed by HPLC-MS using an Atlantis C18 column (4.6 × 250 mm, 5 μm) and the following method: MeCN held at 0% for 3 min followed by a 15 min ramp to 100% MeCN (GP1 retention time: 10.9 min, GP2 retention time: 11.6 min). Aliquots of both were additionally dissolved in PBS, MEM, RPMI-1640, pH 5 H2O, PBS with 10 units/mL porcine liver esterase, 5 mM glutathione, and 5 mM sodium ascorbate, incubated in a shaker at 37 °C, and were analyzed by HPLC-MS at different time points using the same method. At each time point, the area of the peak of GP1 or GP2 was determined by integration and compared to the area of the peaks in […]

r1 (T1 relaxivity) ([2]; 1.41 T): 7.0 mM⁻¹ s⁻¹ | r1 (T1 relaxivity) ([2]; 7 T): 7.1 mM⁻¹ s⁻¹ | Solubility [3]: readily soluble in aqueous solutions | Reduction by GSH ([4]; 5 mM GSH, in less than an hour): ≥ 94% | Decrease in stability in presence of PLE [5]: ~10%
SMILES: [NH2][Pt]([NH2])([OH])([Cl])([Cl])[O]C(=O)CCCCCN1CCN2CCN3CCN(CC1)CC(=O)[O][Gd]([O]C(=O)C2)[O]C(=O)C3 [GP1]
T1 of cell pellet [1]: 1557 ± 17 ms | Δ R1 (increase in R1 vs untreated control) [1]: 48% | Reduction by ascorbate ([4]; 5 mM ascorbate, compared to GSH): reduced by ascorbate, albeit it at a much slower rate
